The values that follow come from patent US20180099931A1 (AbbVie S.à.r.l., priority 2016, published 2018).

Read-outs that look alike come from different tables or passages of the source.

The target of this test is T1, F508delCFTR (Homo sapiens, UniProt P13569, DEL508-508).
T1 construct: expressed in transfected cells; host or cells: CFBE41o- human lung-derived epithelial cells (CFBE4lo-F508delCFTR-HRP), doxycycline-inducible
Nature of the test: Cell Surface Expression-Horse Radish Peroxidase (CSE-HRP) Assay.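 On Maximum % activity (with co-corrector): co-corrector and positive control are both the same reference corrector at 2 µM.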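 On Maximum % activity (without co-corrector): percent of the 2 µM on-plate positive control corrector response above DMSO.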 The test is classed as cell-based. To be noted: CSE-HRP; for Maximum % activity (with co-corrector): with co-corrector (2 μM); for Maximum % activity (with co-corrector) / Emax: maximum at any tested concentration, normalized to on-plate positive control; for Emax: without co-corrector, read-out: Maximum % activity (without co-corrector).

Setting [1] is: test compound without co-corrector, read-out: EC50 (without co-corrector).
Setting [2] is: with co-corrector (2 μM of 3-[(2R,4R)-4-({[1-(2,2-difluoro-1,3-benzodioxol-5-yl)cyclopropyl]carbonyl}amino)-7-methoxy-3,4-dihydro-2H-chromen-2-yl]benzoic acid), read-out: EC50 (with co-corrector).

T1 sequence (P13569 with tags, fused parts or gaps DEL508-508): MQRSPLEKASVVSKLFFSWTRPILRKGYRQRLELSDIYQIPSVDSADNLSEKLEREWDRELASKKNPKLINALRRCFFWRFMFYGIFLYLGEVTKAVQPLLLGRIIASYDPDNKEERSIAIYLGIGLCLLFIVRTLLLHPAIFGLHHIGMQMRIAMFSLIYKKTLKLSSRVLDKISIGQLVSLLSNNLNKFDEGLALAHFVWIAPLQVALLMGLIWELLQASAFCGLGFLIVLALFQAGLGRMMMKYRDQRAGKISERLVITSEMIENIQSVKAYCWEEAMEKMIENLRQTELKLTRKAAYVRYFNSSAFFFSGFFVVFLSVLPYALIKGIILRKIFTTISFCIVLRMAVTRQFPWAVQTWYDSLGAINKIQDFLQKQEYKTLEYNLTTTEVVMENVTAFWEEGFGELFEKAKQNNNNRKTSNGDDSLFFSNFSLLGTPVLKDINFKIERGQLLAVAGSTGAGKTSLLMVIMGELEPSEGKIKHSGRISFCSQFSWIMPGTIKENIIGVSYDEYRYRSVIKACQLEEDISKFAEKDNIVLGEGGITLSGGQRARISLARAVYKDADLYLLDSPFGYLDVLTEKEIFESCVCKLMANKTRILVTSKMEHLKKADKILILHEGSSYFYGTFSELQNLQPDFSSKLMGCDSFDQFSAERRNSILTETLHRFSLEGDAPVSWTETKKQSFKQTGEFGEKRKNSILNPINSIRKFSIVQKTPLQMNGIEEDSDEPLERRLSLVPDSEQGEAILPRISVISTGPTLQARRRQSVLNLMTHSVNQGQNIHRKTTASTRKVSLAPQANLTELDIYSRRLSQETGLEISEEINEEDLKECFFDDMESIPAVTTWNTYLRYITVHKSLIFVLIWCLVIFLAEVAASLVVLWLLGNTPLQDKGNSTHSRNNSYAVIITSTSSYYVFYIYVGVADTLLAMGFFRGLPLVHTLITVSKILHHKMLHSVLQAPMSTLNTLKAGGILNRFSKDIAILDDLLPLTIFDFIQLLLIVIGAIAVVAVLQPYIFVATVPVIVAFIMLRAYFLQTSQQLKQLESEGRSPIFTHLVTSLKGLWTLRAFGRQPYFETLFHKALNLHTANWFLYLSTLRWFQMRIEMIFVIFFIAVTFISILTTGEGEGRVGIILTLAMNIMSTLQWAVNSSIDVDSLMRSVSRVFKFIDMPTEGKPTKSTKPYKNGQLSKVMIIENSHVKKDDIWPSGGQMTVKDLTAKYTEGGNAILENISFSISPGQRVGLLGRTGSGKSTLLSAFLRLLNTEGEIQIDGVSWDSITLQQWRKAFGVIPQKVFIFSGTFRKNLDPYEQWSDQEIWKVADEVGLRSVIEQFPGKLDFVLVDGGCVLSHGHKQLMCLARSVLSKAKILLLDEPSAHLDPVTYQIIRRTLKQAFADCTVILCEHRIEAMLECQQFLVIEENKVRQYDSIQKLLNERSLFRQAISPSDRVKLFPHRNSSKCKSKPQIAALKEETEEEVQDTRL

Take `COc1ccc(C(C)(C)C)cc1CN[C@H]1[C@H](C(C)(C)C)[C@@H](C(=O)O)N(C(=O)CC2(O)CCCCC2)[C@H]1c1ccccc1` [II-210]: the “Maximum % activity (with co-corrector)” value is on record as “+++ (≥350)” and the Emax was more than 200%. Under setting [1], the EC50 lay within 1000 to 10000 nM. Moreover, the EC50 under setting [2] was 1000 to 10000 nM.
Turning to `COc1ccc(C(C)(C)C)cc1CN[C@H]1[C@H](C(C)(C)C)[C@@H](C(=O)O)N(C(=O)C2CC3C=CC2C3)[C@H]1c1ccccc1` (some centres unmarked) [II-211], the “Maximum % activity (with co-corrector)” value is on record as “+++ (≥350)” and the Emax is more than 200%. The half-maximal effective concentration (EC50) under setting [1] lay within 1000 to 10000 nM. In addition, under setting [2], the EC50 is 1000 to 10000 nM.
As to `COc1ccc(C(C)(C)C)cc1CN[C@H]1[C@H](C(C)(C)C)[C@@H](C(=O)O)N(C(=O)CC2C=CCCC2)[C@H]1c1ccccc1` (some centres unmarked) [II-212], the “Maximum % activity (with co-corrector)” value was “+++ (≥350)” and the Emax was more than 200%. In addition, the EC50 under setting [1] fell in the range of 1000 to 10000 nM. Also, the EC50 under setting [2] lay in the range of 1000 to 10000 nM.
For the molecule `COc1ccc(C(C)(C)C)cc1CN[C@H]1[C@H](C(C)(C)C)[C@@H](C(=O)O)N(C(=O)CC2CCOc3ccccc32)[C@H]1c1ccccc1` (some centres unmarked) [II-213], the “Maximum % activity (with co-corrector)” value is given as “+++ (≥350)” and the Emax fell in the range of 100 to 200%. In addition, the EC50 under setting [1] lay in the range of 1000 to 10000 nM. For the same molecule, the EC50 under setting [2] is 1000 to 10000 nM.
For the molecule `COc1ccc(C(C)(C)C)cc1CN[C@H]1[C@H](C(C)(C)C)[C@@H](C(=O)O)N(C(=O)C2CCC(OC)CC2)[C@H]1c1ccccc1` (some centres unmarked) [II-214], the “Maximum % activity (with co-corrector)” value is “+++ (≥350)” and the Emax was more than 200%. Under setting [1], the EC50 lay within 1000 to 10000 nM. The EC50 under setting [2] was in the range of 1000 to 10000 nM.
For `COc1ccc(C(C)(C)C)cc1CN[C@H]1[C@H](C(C)(C)C)[C@@H](C(=O)O)N(C(=O)C(C)c2ccccc2)[C@H]1c1ccccc1` (some centres unmarked) [II-215], the “Maximum % activity (with co-corrector)” value was “+++ (≥350)” and the Emax was more than 200%. Further, under setting [1], the EC50 was 1000 to 10000 nM. The EC50 under setting [2] was less than 1000 nM.
The like results for `COc1ccc(C(C)(C)C)cc1CN[C@H]1[C@H](C(C)(C)C)[C@@H](C(=O)O)N(C(=O)C2COC(C(C)C)OC2)[C@H]1c1ccccc1` (some centres unmarked) [II-216] were, in that order, “+++ (≥350)”, 100 to 200%, 1000 to 10000 nM and 1000 to 10000 nM.
The like results for `COc1ccc(C(C)(C)C)cc1CN[C@H]1[C@H](C(C)(C)C)[C@@H](C(=O)O)N(C(=O)CC2CC(=O)c3ccccc32)[C@H]1c1ccccc1` (some centres unmarked) [II-217] were, in that order, “+++ (≥350)”, more than 200%, 1000 to 10000 nM and less than 1000 nM.
Take `COc1ccc(C(C)(C)C)cc1CN[C@H]1[C@H](C(C)(C)C)[C@@H](C(=O)O)N(C(=O)CC2CCC(F)(F)C2)[C@H]1c1ccccc1` (some centres unmarked) [II-218]: the “Maximum % activity (with co-corrector)” value is given as “+++ (≥350)” and the Emax lay within 100 to 200%. For the same molecule, the EC50 under setting [1] lay in the range of 1000 to 10000 nM. Further, under setting [2], the EC50 lay within 1000 to 10000 nM.
Consider `COc1ccc(C(C)(C)C)cc1CN[C@H]1[C@H](C(C)(C)C)[C@@H](C(=O)O)N(C(=O)CC2CCCC2(F)F)[C@H]1c1ccccc1` (some centres unmarked) [II-219], for which the “Maximum % activity (with co-corrector)” value is on record as “+++ (≥350)” and the Emax is more than 200%. Also, the EC50 under setting [1] was in the range of 1000 to 10000 nM. Besides, the EC50 under setting [2] was less than 1000 nM.
`COc1ccc(C(C)(C)C)cc1CN[C@H]1[C@H](C(C)(C)C)[C@@H](C(=O)O)N(C(=O)CC2(C)CCC(F)(F)C2)[C@H]1c1ccccc1` (some centres unmarked) [II-220]: the “Maximum % activity (with co-corrector)” value is listed as “+++ (≥350)” and the Emax was 100 to 200%. Besides, under setting [1], the concentration for a half-maximal effect (EC50) lay within 1000 to 10000 nM. Besides, the EC50 under setting [2] is 1000 to 10000 nM.
Take `COc1ccc(C(C)(C)C)cc1CN[C@H]1[C@H](C(C)(C)C)[C@@H](C(=O)O)N(C(=O)Cc2nn(C)c(=O)c3ccccc23)[C@H]1c1ccccc1` [II-221]: the “Maximum % activity (with co-corrector)” value is on record as “+++ (≥350)” and the Emax was in the range of 100 to 200%. The EC50 under setting [1] was in the range of 1000 to 10000 nM. For the same molecule, the EC50 under setting [2] fell in the range of 1000 to 10000 nM.
On to `COc1ccc(C(C)(C)C)cc1CN[C@H]1[C@H](C(C)(C)C)[C@@H](C(=O)O)N(C(=O)c2cccc3c2OCC3)[C@H]1c1ccccc1` [II-222], for which the “Maximum % activity (with co-corrector)” value is given as “+++ (≥350)” and the Emax is 100 to 200%. Also, the EC50 under setting [1] fell in the range of 1000 to 10000 nM. For the same molecule, under setting [2], the EC50 was less than 1000 nM.
The like results for `COc1ccc(C(C)(C)C)cc1CN[C@H]1[C@H](C(C)(C)C)[C@@H](C(=O)O)N(C(=O)c2cc(Cl)c(=O)n(C(C)C)c2)[C@H]1c1ccccc1` [II-223] were, in that order, “+++ (≥350)”, less than 100%, 1000 to 10000 nM and 1000 to 10000 nM.
For `COc1ccc(C(C)(C)C)cc1CN[C@H]1[C@H](C(C)(C)C)[C@@H](C(=O)O)N(C(=O)c2ccc(Oc3ccccn3)cc2)[C@H]1c1ccccc1` [II-224], in that order: “+++ (≥350)”, more than 200%, 1000 to 10000 nM and less than 1000 nM.
As to `COc1ccc(C(C)(C)C)cc1CN[C@H]1[C@H](C(C)(C)C)[C@@H](C(=O)O)N(C(=O)c2cccc(Cn3cncn3)c2)[C@H]1c1ccccc1` [II-225], the “Maximum % activity (with co-corrector)” value is on record as “+++ (≥350)” and the Emax lay in the range of 100 to 200%. The EC50 under setting [1] is 1000 to 10000 nM. Moreover, the EC50 under setting [2] lay in the range of 1000 to 10000 nM.
As for `COc1ccc(C(C)(C)C)cc1CN[C@H]1[C@H](C(C)(C)C)[C@@H](C(=O)O)N(C(=O)c2cc(-c3ccccc3)nn2C)[C@H]1c1ccccc1` [II-226], the “Maximum % activity (with co-corrector)” value is “+++ (≥350)” and the Emax lay within 100 to 200%. Under setting [1], the EC50 is less than 1000 nM. Moreover, the EC50 under setting [2] was less than 1000 nM.
In the case of `COc1ccc(C(C)(C)C)cc1CN[C@H]1[C@H](C(C)(C)C)[C@@H](C(=O)O)N(C(=O)c2cc(-c3ccccc3)n(C)n2)[C@H]1c1ccccc1` [II-227], the “Maximum % activity (with co-corrector)” value is “+++ (≥350)” and the Emax was more than 200%. The EC50 under setting [1] was in the range of 1000 to 10000 nM. Further, the EC50 under setting [2] was less than 1000 nM.
On to `COc1ccc(C(C)(C)C)cc1CN[C@H]1[C@H](C(C)(C)C)[C@@H](C(=O)O)N(C(=O)c2cnn(-c3ccccc3C)c2C)[C@H]1c1ccccc1` [II-228], for which the “Maximum % activity (with co-corrector)” value is “+++ (≥350)” and the Emax is more than 200%. Also, the EC50 under setting [1] is less than 1000 nM. Further, the EC50 under setting [2] is less than 1000 nM.
`COc1ccc(C(C)(C)C)cc1CN[C@H]1[C@H](C(C)(C)C)[C@@H](C(=O)O)N(C(=O)c2c(C)nn(-c3ccccc3)c2C)[C@H]1c1ccccc1` [II-229]: the “Maximum % activity (with co-corrector)” value was “+++ (≥350)” and the Emax is more than 200%. Also, the EC50 under setting [1] is 1000 to 10000 nM. Under setting [2], the EC50 lay within 1000 to 10000 nM.
Take `COc1ccc(C(C)(C)C)cc1CN[C@H]1[C@H](C(C)(C)C)[C@@H](C(=O)O)N(C(=O)c2ccc3c(c2)OCCCO3)[C@H]1c1ccccc1` [II-230]: the “Maximum % activity (with co-corrector)” value is reported as “+++ (≥350)” and the Emax was 100 to 200%. The EC50 under setting [1] lay in the range of 1000 to 10000 nM. For the same molecule, under setting [2], the EC50 fell in the range of 1000 to 10000 nM.
With `COc1ccc(C(C)(C)C)cc1CN[C@H]1[C@H](C(C)(C)C)[C@@H](C(=O)O)N(C(=O)c2onc3ccccc23)[C@H]1c1ccccc1` [II-231], the “Maximum % activity (with co-corrector)” value is “+++ (≥350)” and the Emax lay in the range of 100 to 200%. Moreover, the EC50 under setting [1] was less than 1000 nM. The EC50 under setting [2] was less than 1000 nM.
For the molecule `COc1ccc(C(C)(C)C)cc1CN[C@H]1[C@H](C(C)(C)C)[C@@H](C(=O)O)N(C(=O)C2COc3ccccc3C2)[C@H]1c1ccccc1` (some centres unmarked) [II-232], the “Maximum % activity (with co-corrector)” value is given as “+++ (≥350)” and the Emax was 100 to 200%. Moreover, under setting [1], the EC50 lay in the range of 1000 to 10000 nM. Besides, under setting [2], the EC50 was less than 1000 nM.
The like results for `COc1ccc(C(C)(C)C)cc1CN[C@H]1[C@H](C(C)(C)C)[C@@H](C(=O)O)N(C(=O)Cc2cccc(F)c2F)[C@H]1c1ccccc1` [II-233] were, in that order, “+++ (≥350)”, more than 200%, 1000 to 10000 nM and less than 1000 nM.
As for `COc1ccc(C(C)(C)C)cc1CN[C@H]1[C@H](C(C)(C)C)[C@@H](C(=O)O)N(C(=O)CC2=CCCC2)[C@H]1c1ccccc1` [II-234], the “Maximum % activity (with co-corrector)” value was “+++ (≥350)” and the Emax is more than 200%. The half-maximal effective concentration (EC50) under setting [1] is 1000 to 10000 nM. The EC50 under setting [2] lay within 1000 to 10000 nM.
As to `COc1ccc(C(C)(C)C)cc1CN[C@H]1[C@H](C(C)(C)C)[C@@H](C(=O)O)N(C(=O)CC2CCCO2)[C@H]1c1ccccc1` (some centres unmarked) [II-235], the “Maximum % activity (with co-corrector)” value is reported as “+++ (≥350)” and the Emax was more than 200%. Under setting [1], the EC50 was 1000 to 10000 nM. The EC50 under setting [2] is 1000 to 10000 nM.
As to `COc1ccc(C(C)(C)C)cc1CN[C@H]1[C@H](C(C)(C)C)[C@@H](C(=O)O)N(C(=O)Cc2ncc(Cl)cc2F)[C@H]1c1ccccc1` [II-236], the “Maximum % activity (with co-corrector)” value was “+++ (≥350)” and the Emax is more than 200%. In addition, the EC50 under setting [1] fell in the range of 1000 to 10000 nM. Also, under setting [2], the concentration for a half-maximal effect (EC50) was less than 1000 nM.
For the molecule `COc1ccc(C(C)(C)C)cc1CN[C@H]1[C@H](C(C)(C)C)[C@@H](C(=O)O)N(C(=O)C2CC(=O)N(C(C)C)C2)[C@H]1c1ccccc1` (some centres unmarked) [II-238], the “Maximum % activity (with co-corrector)” value is “+++ (≥350)” and the Emax is 100 to 200%. Under setting [1], the EC50 lay in the range of 1000 to 10000 nM. Moreover, under setting [2], the EC50 lay in the range of 1000 to 10000 nM.
Consider `COc1ccc(C(C)(C)C)cc1CN[C@H]1[C@H](C(C)(C)C)[C@@H](C(=O)O)N(C(=O)C2CC(=O)N(C3CC3)C2)[C@H]1c1ccccc1` (some centres unmarked) [II-239], for which the “Maximum % activity (with co-corrector)” value is “+++ (≥350)” and the Emax lay within 100 to 200%. Also, under setting [1], the EC50 is 1000 to 10000 nM. The EC50 under setting [2] was in the range of 1000 to 10000 nM.
